The source of these data is patent US9656988B2 (Pharmacyclics LLC, priority 2013, dated 2017).

Where two headings read alike, the source gives them in different places. A value given as a limit tells only on which side of the number the result lay.

The assay concerns the target BTK (Homo sapiens (Human), UniProt Q06187). The experiment in a line: Btk in vitro inhibitory activity (one of Method A TR-FRET, Method B electrophoretic mobility shift, Method C radiometric filter binding). It is filed as biochemical.
The mark [1] stands for this setting: determined using one of the methods of Example 355a, 355b and 355c, read-out: BTK IC50.

Chain of BTK (Q06187 whole entry): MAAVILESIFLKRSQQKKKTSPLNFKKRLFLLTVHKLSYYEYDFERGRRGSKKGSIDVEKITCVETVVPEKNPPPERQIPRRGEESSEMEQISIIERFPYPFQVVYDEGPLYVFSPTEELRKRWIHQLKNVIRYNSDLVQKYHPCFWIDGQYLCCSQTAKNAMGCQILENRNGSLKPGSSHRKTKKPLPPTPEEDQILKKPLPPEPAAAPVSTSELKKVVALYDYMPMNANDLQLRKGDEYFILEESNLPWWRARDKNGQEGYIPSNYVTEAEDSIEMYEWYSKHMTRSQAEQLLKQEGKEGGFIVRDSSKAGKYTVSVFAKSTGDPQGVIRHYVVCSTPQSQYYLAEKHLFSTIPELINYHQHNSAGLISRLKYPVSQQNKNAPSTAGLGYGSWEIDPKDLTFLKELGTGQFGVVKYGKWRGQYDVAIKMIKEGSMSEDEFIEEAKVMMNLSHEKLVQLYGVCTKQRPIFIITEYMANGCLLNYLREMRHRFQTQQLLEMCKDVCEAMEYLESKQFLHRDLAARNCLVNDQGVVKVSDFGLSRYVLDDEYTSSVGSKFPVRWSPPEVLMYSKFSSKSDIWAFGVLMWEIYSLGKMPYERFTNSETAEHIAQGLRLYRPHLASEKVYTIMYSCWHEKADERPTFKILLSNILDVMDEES

As to `COc1ccc(C(=O)N[C@@H]2CCCN(c3cnc(C(N)=O)c(Nc4ccc(C5CCN(C=O)CC5)cc4)n3)C2)cc1` [Example 138, (R)-3-(4-(1-formylpiperidin-4-yl)phenylamino)-5-(3-(4-methoxybenzamido)piperidin-1-yl)pyrazine-2-carboxamide], the IC50 under setting [1] was below 10 nM and the IC50 (read-out: Btk (IC50)) was below 10 nM. Take `COc1ccc(C(=O)N[C@@H]2CCCN(c3cnc(C(N)=O)c(Nc4ccc(C5CCNCC5)cc4F)n3)C2)cc1` [Example 162, (R)-3-(2-fluoro-4-(piperidin-4-yl)phenylamino)-5-(3-(4-methoxybenzamido)piperidin-1-yl)pyrazine-2-carboxamide]: the 50% inhibitory concentration (IC50) runs as follows: under setting [1], below 10 nM; (read-out: Btk (IC50)) 10 to 100 nM.

As for `CN(C)C(=O)N[C@@H]1CCCN(c2cnc(C(N)=O)c(Nc3ccc(C4(C)CCNCC4)cc3)n2)C1` [Example 221, (R)-5-(3-(3,3-dimethylureido)piperidin-1-yl)-3-(4-(4-methylpiperidin-4-yl)phenylamino)pyrazine-2-carboxamide], the IC50 is below 10 nM under setting [1] and below 10 nM (read-out: Btk (IC50)). Turning to `COc1ccc(C(=O)N[C@@H]2CCCN(c3nnc(C(N)=O)c(Nc4ccc(C(=O)N5CCOCC5)cc4)n3)C2)cc1` [Example 10, (R)-3-(3-(4-methoxybenzamido)piperidin-1-yl)-5-(4-(morpholine-4-carbonyl)phenylamino)-1,2,4-triazine-6-carboxamide], the IC50 under setting [1] was below 10 nM.

As for `COCCOc1ccc(Nc2nc(N3CCC[C@@H](NC(=O)c4ccc(OC)cc4)C3)cnc2C(N)=O)cc1` [Example 112, (R)-5-(3-(4-methoxybenzamido)piperidin-1-yl)-3-(4-(2-methoxyethoxy)phenylamino)pyrazine-2-carboxamide], the IC50 runs as follows: under setting [1], 10 to 100 nM; (read-out: Btk (IC50)) 10 to 100 nM. With `COc1ccc(C(=O)N[C@@H]2CCCN(c3nnc(C(N)=O)c(Nc4ccc(N5CCN(C6CCCC6)CC5)cc4)n3)C2)cc1` [Example 331, (R)-5-(4-(4-cyclopentylpiperazin-1-yl)phenylamino)-3-(3-(4-methoxybenzamido)piperidin-1-yl)-1,2,4-triazine-6-carboxamide], the IC50 under setting [1] is below 10 nM. With `CCC(=O)N[C@@H]1CCCN(c2cnc(C(N)=O)c(Nc3ccc(C4CCN(C5CCCC5)CC4)cc3)n2)C1` [Example 296, (R)-3-(4-(1-cyclopentylpiperidin-4-yl)phenylamino)-5-(3-propionamidopiperidin-1-yl)pyrazine-2-carboxamide], the IC50 is, setting by setting: under setting [1], below 10 nM; (read-out: Btk (IC50)) below 10 nM.

Consider `CN(C)C(=O)N[C@@H]1CCCN(c2cnc(C(N)=O)c(Nc3ccc(C(=O)N(C)C)cc3)n2)C1` [Example 194, (R)-3-(4-(dimethylcarbamoyl)phenylamino)-5-(3-(3,3-dimethylureido)piperidin-1-yl)pyrazine-2-carboxamide], for which the IC50 runs as follows: under setting [1], below 10 nM; (read-out: Btk (IC50)) below 10 nM. With `CCOc1ccc(C(=O)N[C@@H]2CCCN(c3nnc(C(N)=O)c(Nc4ccc(C#N)cc4)n3)C2)cc1` [Example 159, (R)-5-(4-cyanophenylamino)-3-(3-(4-ethoxybenzamido)piperidin-1-yl)-1,2,4-triazine-6-carboxamide], the IC50 runs as follows: (Btk (IC50)) 100 to 1000 nM; under setting [1], 100 to 1000 nM. For `CN(C)Cc1ccc(Nc2nc(N3CCC[C@@H](NC(=O)N(C)C)C3)cnc2C(N)=O)cc1` [Example 193, (R)-3-(4-((dimethylamino)methyl)phenylamino)-5-(3-(3,3-dimethylureido)piperidin-1-yl)pyrazine-2-carboxamide], the concentration for half-maximal inhibition (IC50) runs as follows: (Btk (IC50)) 10 to 100 nM; under setting [1], 10 to 100 nM. With `CN(C)C(=O)N[C@@H]1CCCN(c2cnc(C(N)=O)c(Nc3ccn(C)c(=O)c3)n2)C1` [Example 185, (R)-5-(3-(3,3-dimethylureido)piperidin-1-yl)-3-(1-methyl-2-oxo-1,2-dihydropyridin-4-ylamino)pyrazine-2-carboxamide], the 50% inhibitory concentration (IC50) lay within 100 to 1000 nM (Btk (IC50)) and 100 to 1000 nM under setting [1].

Consider `CCOCCOc1ccc(Nc2nc(N3CCC[C@@H](NC(=O)c4ccc(OC)cc4)C3)cnc2C(N)=O)cc1` [Example 113, (R)-3-(4-(2-ethoxyethoxy)phenylamino)-5-(3-(4-methoxybenzamido)piperidin-1-yl)pyrazine-2-carboxamide], for which the IC50 under setting [1] is 10 to 100 nM. As for `CN(C)C(=O)N[C@@H]1CCCN(c2cnc(C(N)=O)c(Nc3ccc(F)cc3)n2)C1` [Example 179, (R)-5-(3-(3,3-dimethylureido)piperidin-1-yl)-3-(4-fluorophenylamino)pyrazine-2-carboxamide], the IC50 runs as follows: under setting [1], 10 to 100 nM; (read-out: Btk (IC50)) 10 to 100 nM. With `CN(C)C(=O)N[C@@H]1CCCN(c2cnc(C(N)=O)c(Nc3ccc(C(C)(C)C(N)=O)cc3)n2)C1` [Example 198, (R)-3-(4-(1-amino-2-methyl-1-oxopropan-2-yl)phenylamino)-5-(3-(3,3-dimethylureido)piperidin-1-yl)pyrazine-2-carboxamide], the IC50 by setting is: under setting [1], 10 to 100 nM; (read-out: Btk (IC50)) 10 to 100 nM. With `CN(C)C(=O)N[C@@H]1CCCN(c2cnc(C(N)=O)c(Nc3ccc(OC4CCCC4)cc3)n2)C1` [Example 189, (R)-3-(4-(cyclopentyloxy)phenylamino)-5-(3-(3,3-dimethylureido)piperidin-1-yl)pyrazine-2-carboxamide], the IC50 runs as follows: (Btk (IC50)) 10 to 100 nM; under setting [1], 10 to 100 nM.

For the molecule `CN(C)C(=O)N[C@@H]1CCCN(c2cnc(C(N)=O)c(Nc3ccc(C4(C(=O)N(C)C)CC4)cc3)n2)C1` [Example 202, (R)-3-(4-(1-(dimethylcarbamoyl)cyclopropyl)phenylamino)-5-(3-(3,3-dimethylureido)piperidin-1-yl)pyrazine-2-carboxamide], the IC50 under setting [1] was below 10 nM and the IC50 (read-out: Btk (IC50)) was below 10 nM. In the case of `NC(=O)c1nnc(N2CCC[C@@H](NC(=O)c3ccc(C(F)(F)F)cc3)C2)nc1Nc1ccc(C(=O)N2CCOCC2)cc1` [Example 6, (R)-5-(4-(morpholine-4-carbonyl)phenylamino)-3-(3-(4-(trifluoromethyl)benzamido)piperidin-1-yl)-1,2,4-triazine-6-carboxamide], under setting [1], the IC50 was below 10 nM. `NC(=O)c1nnc(N2CCC[C@@H](NC(=O)c3ccc(Cl)s3)C2)nc1Nc1ccc(C(=O)N2CCOCC2)cc1` [Example 17, (R)-3-(3-(5-chlorothiophene-2-carboxamido)piperidin-1-yl)-5-(4-(morpholine-4-carbonyl)phenylamino)-1,2,4-triazine-6-carboxamide]: the IC50 under setting [1] was below 10 nM. The same measure, in the same setting: with `CC(C)(C)c1ccc(C(=O)N[C@@H]2CCCN(c3nnc(C(N)=O)c(Nc4ccc(-c5ncco5)cc4)n3)C2)cc1` [Example 58, (R)-3-(3-(4-tert-butylbenzamido)piperidin-1-yl)-5-(4-(oxazol-2-yl)phenylamino)-1,2,4-triazine-6-carboxamide] the figure was 10 to 100 nM; with `NC(=O)c1nnc(N2CCC[C@@H](NC(=O)C3CCOCC3)C2)nc1Nc1ccc(C(=O)N2CCOCC2)cc1` [Example 30, (R)-5-(4-(morpholine-4-carbonyl)phenylamino)-3-(3-(tetrahydro-2H-pyran-4-carboxamido)piperidin-1-yl)-1,2,4-triazine-6-carboxamide], 10 to 100 nM. The same measure, in the same setting: to `CC(C)(C)OC(=O)N1CCC[C@@H](Nc2nnc(C(N)=O)c(Nc3ccc(C(=O)N4CCOCC4)cc3)n2)C1` [Example 60, (R)-tert-butyl 3-(6-carbamoyl-5-(4-(morpholine-4-carbonyl)phenylamino)-1,2,4-triazin-3-ylamino)piperidine-1-carboxylate] belongs 100 to 1000 nM. `CN(C)C(=O)N[C@@H]1CCCN(c2cnc(C(N)=O)c(Nc3ccc(C4CCN(S(=O)(=O)N(C)C)CC4)cc3)n2)C1` [Example 173, (R)-3-(4-(1-(N,N-dimethylsulfamoyl)piperidin-4-yl)phenylamino)-5-(3-(3,3-dimethylureido)piperidin-1-yl)pyrazine-2-carboxamide]: the IC50 is, setting by setting: (Btk (IC50)) 10 to 100 nM; under setting [1], 10 to 100 nM. With `NC(=O)c1ncc(N2CCC[C@@H](NC(=O)C3CC4(CCC4)C3)C2)nc1Nc1ccc(C2CCN(C3CC3)CC2)cc1` [Example 309, 3-(4-(1-cyclopropylpiperidin-4-yl)phenylamino)-5-((3R)-3-(spiro[3.3]heptane-2-carboxamido)piperidin-1-yl)pyrazine-2-carboxamide], the IC50 was 100 to 1000 nM under setting [1] and 100 to 1000 nM (read-out: Btk (IC50)). In the case of `NC(=O)c1nnc(N2CCC[C@@H](NC(=O)c3ccc(F)cc3)C2)nc1Nc1ccc(C(=O)N2CCOCC2)cc1` [Example 9, (R)-3-(3-(4-fluorobenzamido)piperidin-1-yl)-5-(4-(morpholine-4-carbonyl)phenylamino)-1,2,4-triazine-6-carboxamide], under setting [1], the IC50 was below 10 nM.

Take `NC(=O)c1ncc(N2CCCC[C@@H](NC(=O)C3CC3)C2)nc1Nc1ccc(C2CCN(C3CCCC3)CC2)cc1` [Example 328, (R)-3-(4-(1-cyclopentylpiperidin-4-yl)phenylamino)-5-(3-(cyclopropanecarboxamido)azepan-1-yl)pyrazine-2-carboxamide]: the IC50 under setting [1] is below 10 nM and the IC50 (read-out: Btk (IC50)) was below 10 nM. Regarding `NC(=O)c1ncc(N2CCC[C@@H](NC(=O)c3cccnc3)C2)nc1Nc1ccc(C2CCN(C3CCCC3)CC2)cc1` [Example 304, (R)-3-(4-(1-cyclopentylpiperidin-4-yl)phenylamino)-5-(3-(nicotinamido)piperidin-1-yl)pyrazine-2-carboxamide], the IC50 is below 10 nM under setting [1] and below 10 nM (read-out: Btk (IC50)). In the case of `COc1ccc(C(=O)N[C@@H]2CCCN(c3nnc(C(N)=O)c(Nc4ccc(N5CCC(C(=O)N(C)C)CC5)cc4)n3)C2)cc1` [Example 332, (R)-5-(4-(4-(dimethylcarbamoyl)piperidin-1-yl)phenylamino)-3-(3-(4-methoxybenzamido)piperidin-1-yl)-1,2,4-triazine-6-carboxamide], the concentration for half-maximal inhibition (IC50) under setting [1] was below 10 nM. On to `CC(C)N1CCC(C)(c2ccc(Nc3nc(N4CCC[C@@H](N5CCN(C)C5=O)C4)cnc3C(N)=O)cc2)CC1` [Example 264, (R)-3-(4-(1-isopropyl-4-methylpiperidin-4-yl)phenylamino)-5-(3-(3-methyl-2-oxoimidazolidin-1-yl)piperidin-1-yl)pyrazine-2-carboxamide], for which the IC50 (read-out: Btk (IC50)) was below 10 nM.

Usually IC50 stands for the midpoint of a concentration-inhibition curve.
